ChEMBL document CHEMBL3259638, “Preliminary investigations into triazole derived androgen receptor antagonists” (Bioorg Med Chem, 2014)

Experiments:
[1] = system: PC-3; test: Cytotoxicity against human PC3 cells assessed growth inhibition; type: functional, cell-based
[2] = system: LNCaP; test: Cytotoxicity against human LNCAP cells; type: cell-based

Compound: CC(C)(O)c1cn(-c2ccc(Cl)c(C(F)(F)F)c2)nn1
- IC50 [1]: 69 µM

Compound: CC(C)(O)c1cn(-c2ccc(C#N)c(C(F)(F)F)c2)nn1
- Activity [2]: Toxic

Compound: CC(C)(O)c1cn(-c2cc(C(F)(F)F)cc(C(F)(F)F)c2)nn1
- IC50 [1]: 42 µM

Compound: CC(C)(O)c1cn(-c2ccc([N+](=O)[O-])c(C(F)(F)F)c2)nn1
- IC50 [1]: 63 µM
